# Test results as given in PubChem BioAssay (NCI).
#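 Assay format: 96-well plates, 48-hour exposure. The concentration for 50% growth inhibition is given as GI50. TGI marks complete inhibition of growth.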
# Assays:
# Assay in all cases: DTP human tumour cell line panel, 48 h
# 786-0 renal = test system: 786-0 renal
# A498 renal = test system: A498 renal
# A549 NSCLC = test system: A549 NSCLC
# ACHN renal = test system: ACHN renal
# BT-549 breast = test system: BT-549 breast
# CAKI-1 renal = test system: CAKI-1 renal
# CCRF-CEM leukemia = test system: CCRF-CEM leukemia
# COLO 205 colon = test system: COLO 205 colon
# DU-145 prostate = test system: DU-145 prostate
# EKVX NSCLC = test system: EKVX NSCLC
# HCC-2998 colon = test system: HCC-2998 colon
# HCT-116 colon = test system: HCT-116 colon
# HCT-15 colon = test system: HCT-15 colon
# HOP-62 NSCLC = test system: HOP-62 NSCLC
# HS 578T breast = test system: HS 578T breast
# HT29 colon = test system: HT29 colon
# IGROV1 ovarian = test system: IGROV1 ovarian
# K-562 leukemia = test system: K-562 leukemia
# KM12 colon = test system: KM12 colon
# LOX IMVI melanoma = test system: LOX IMVI melanoma
# M14 melanoma = test system: M14 melanoma
# MALME-3M melanoma = test system: MALME-3M melanoma
# MCF7 breast = test system: MCF7 breast
# MDA-MB-231 breast = test system: MDA-MB-231 breast
# MDA-MB-435 = test system: MDA-MB-435
# MOLT-4 leukemia = test system: MOLT-4 leukemia
# NCI-H226 lung = test system: NCI-H226 lung
# NCI-H23 lung = test system: NCI-H23 lung
smiles,measurement,setting,value
O=c1c2cc(-c3ccc(F)cc3F)ccc2n(O)c(=O)n1-c1cccc(C(F)(F)F)c1,GI50,786-0 renal,2.15 µM
same,TGI,786-0 renal,5.66 µM
same,GI50,A498 renal,0.347 µM
same,TGI,A498 renal,1.26 µM
same,GI50,A549 NSCLC,2.95 µM
same,TGI,A549 NSCLC,20.1 µM
same,GI50,ACHN renal,2.08 µM
same,TGI,ACHN renal,10.4 µM
same,GI50,BT-549 breast,0.437 µM
same,TGI,BT-549 breast,1.58 µM
same,GI50,CAKI-1 renal,1.61 µM
same,TGI,CAKI-1 renal,6.02 µM
same,GI50,CCRF-CEM leukemia,3.12 µM
same,TGI,CCRF-CEM leukemia,> 100 µM
same,GI50,COLO 205 colon,1.94 µM
same,TGI,COLO 205 colon,4.05 µM
same,GI50,DU-145 prostate,2.48 µM
same,TGI,DU-145 prostate,49.1 µM
same,GI50,EKVX NSCLC,2.35 µM
same,TGI,EKVX NSCLC,8.47 µM
same,GI50,HCC-2998 colon,2.51 µM
same,TGI,HCC-2998 colon,9.9 µM
same,GI50,HCT-116 colon,0.42 µM
same,TGI,HCT-116 colon,1.61 µM
same,GI50,HCT-15 colon,0.435 µM
same,TGI,HCT-15 colon,2.28 µM
same,GI50,HOP-62 NSCLC,1.8 µM
same,TGI,HOP-62 NSCLC,4.34 µM
same,GI50,HS 578T breast,0.837 µM
same,TGI,HS 578T breast,4.42 µM
same,GI50,HT29 colon,4.3 µM
same,TGI,HT29 colon,26.8 µM
same,GI50,IGROV1 ovarian,2.03 µM
same,TGI,IGROV1 ovarian,25.4 µM
same,GI50,K-562 leukemia,0.424 µM
same,TGI,K-562 leukemia,35 µM
same,GI50,KM12 colon,2.16 µM
same,TGI,KM12 colon,7.07 µM
same,GI50,LOX IMVI melanoma,1.22 µM
same,TGI,LOX IMVI melanoma,2.94 µM
same,GI50,M14 melanoma,0.773 µM
same,TGI,M14 melanoma,3.47 µM
same,GI50,MALME-3M melanoma,1.51 µM
same,TGI,MALME-3M melanoma,5.39 µM
same,GI50,MCF7 breast,1.61 µM
same,TGI,MCF7 breast,7.12 µM
same,GI50,MDA-MB-231 breast,1.59 µM
same,TGI,MDA-MB-231 breast,6.36 µM
same,GI50,MDA-MB-435,1.56 µM
same,TGI,MDA-MB-435,7.67 µM
same,GI50,MOLT-4 leukemia,0.419 µM
same,TGI,MOLT-4 leukemia,2.13 µM
same,GI50,NCI-H226 lung,1.01 µM
same,TGI,NCI-H226 lung,3.64 µM
same,GI50,NCI-H23 lung,0.722 µM
